Key:
S2R+ cells = assay: mitoSOX mitochondrial superoxide staining; type: cell-based; settings: co-treatment with paraquat
Protocol: A) Staining was performed with mitoSOX Red Mitochondrial Superoxide dye. B) Quantification of the fluorescence intensity of the mitoSOX probe in the indicated treatments (n=3). Data is presented as mean±s.e.m. P-values were determined by paired student's t-test, *P-value<0.05.
Whether SR3677 may protect against paraquat-induced phenotypes by interfering with paraquat's activity was also assessed. Paraquat gives rise to mitochondrial superoxide species that can be detected using mitoSOX, a fluorescent probe that is targeted to mitochondria, where it may be oxidized by superoxides. The oxidized mitoSOX species fluoresces upon encountering nucleic acid. The fluorescence intensity of Schneider's S2-R^+ cells, a cell line derived from dissociated embryos with a flat morphology amenable to imaging, was assessed following treatments with paraquat or paraquat and SR3677.

Canton(S) flies = type: in vivo, Drosophila
Protocol: Fresh vials containing standard fly food supplemented with the indicated treatments were changed out every 2 days. The number of flies surviving each day was counted and log-rank tests were performed to determine statistical significance. […] The number of flies to climb beyond 9.5 cm every 10 seconds was assessed. The percentage of flies in each treatment to cross this line was determined. The climbing ability of each treatment was normalized to the control group treated with water only. […] Log-rank tests were performed to determine p-values for survival analyses (a, b, g), *P<0.05. P-values were determined by one-tailed paired student's t-test for all climbing assays (c-e, h), *P<0.05. Data is expressed as mean±s.e.m. All error bars represent s.e.m
Drosophila aged 7 days are fed food supplemented with either water (control), 1 mM SR3677, 10 mM paraquat or SR3677 in combination with paraquat. The survival of flies was recorded each day following administration of the treatments and climbing abilities were tested every 2 days by performing negative geotaxis assays.
Male Canton(S) Drosophila were aged 7 days prior to feeding with standard fly food supplemented with water, 10 mM paraquat, 1 mM SR3677, or with combinations of these chemicals. Flies were placed into new vials containing fresh food supplemented with the treatments previously administered and 2 days later, climbing assays were performed. Flies were placed into plastic cylinder vials and tapped down, so all flies fell to the bottom. The number of flies to climb beyond 12.5 cm was counted every 10 s and values are represented as the percentage of total flies in each treatment group.

HEK293 GFP Parkin cells = assay: Immunoblotting of mitochondrial protein degradation after CCCP; type: cell-based
Protocol: (a) HEK293 GFP Parkin cells were treated with varying doses of SR3677 for 2 hours prior to induction of mitophagy with 10 μM CCCP for one hour. The percentage of cells with mitochondrial Parkin increased in a dose-dependent manner. […] Cell lysates were harvested, proteins were separated by SDS-PAGE and immunoblotting was performed with anti-Mfn2 and anti-actin antibodies. (c) Ponceau VDAC1 levels in each sample normalized to Ponceau staining. (d) Mfn2/actin levels in CCCP treated cells. (e) Densitometry analysis was performed to quantify Mfn2 and VDAC1 levels in each sample (n=4 independent experiments).
HEK293 GFP Parkin cells co-treated with 0.5 μM SR3677 or DMSO and 10 μM CCCP for the indicated time (hours). Cell lysates were separated by SDS-PAGE and immunoblotting was performed to assess turnover of IMM/matrix substrates (A) ATP5A, (B) UQCRC2 and (C) COXIV. Densitometry analysis was performed. Protein levels were normalized to Ponceau. Data is expressed as mean±s.e.m (n=6, 7 and 8 for a, b and c, respectively. 4) P-values were determined by paired student's t-test, *P<0.05.
Lysates were harvested using lysis buffer (0.1M Tris HCl, 0.01% SDS, pH 9) with 1× protease inhibitor cocktail (BioShop, PIC002.1). Lysates were then heated at 95° C. for 20 minutes with vortexing performed at 5-minute intervals. The BCA assay (Pierce, 23227) was performed to determine protein concentration, to standardize protein loading across samples to be compared. 12% SDS-PAGE gels were used to run samples to be analyzed for LC3 conversation and for Tom20 and 10% gels were run for all other samples. Transfer of proteins onto PVDF membrane (Immobilon, IPVH00010) was performed at 110V for 80 minutes or at 36V for 8 hours. Membranes were blocked with 5% skim milk in TBST (1×TBS, 0.1% Tween-20 [BioShop, 1M23298]) for 30 minutes prior to incubation in primary antibodies at a dilution of 1:1000 for all antibodies except anti-ROCK2 and anti-LC3, which were used at a dilution of 1:5000. Visualization of proteins was performed using ECL (BioRad, 11705062).
Densitometry was performed by normalizing bands corresponding to the protein of interest to a loading control such as actin using ImageLab 6.0 software (BioRad).

SH-SY5Y cells = assay: Cell viability by crystal violet staining; type: cell-based; settings: 0.5 μM pre-treatment, 10 μM CCCP 24 hours
Protocol: A) SH-SY5Y cells were pre-treated with either DMSO or 0.5 μM SR3677 prior to addition of either DMSO or 10 μM CCCP for 24 hours. Following treatment, cells were washed, fixed with 4% paraformaldehyde and stained with crystal violet dye. B) The OD at 550 nm was measured to assess crystal violet staining.
To determine whether these findings could be translated into dopaminergic neurons, the study was continued in the dopaminergic neuroblastoma SH-SY5Y cell line. Parkin undergoes a similar CCCP-dependent subcellular transition from cytosol to mitochondria in these cells^12. First, whether the viability of these cells would be improved by SR3677 was investigated. Initially, experiments were conducted using crystal violet staining as an indicator of cell viability. […] Next, SH-SY5Y cells were differentiated into a more neuron-like population according to protocols previously described^10 and ATP levels were measured. […] Varying concentrations of SR3677 were co-administered alongside the PD-causing toxin paraquat.

[1] = tested on: HeLa cells stably expressing GFP parkin and mito-DsRed; assay: Mitochondrial clearance assay; type: cell-based
Protocol: HeLa cells stably expressing GFP parkin and mito-DsRed were seeded into 12-well plates containing coverslips and allowed to adhere overnight. Cells were then treated with DMSO or 0.5 μM SR3677 for 2 hours prior to addition of 10 μM CCCP for 24 hours. Cells were then washed with PBS, fixed with 4% PFA and washed with PBS again prior to the mounting of coverslips onto glass slides. Mitochondrial clearance was quantified by counting the number of cells in each treatment to retain mito-DsRed signal. 3 independent trials were performed with at least 50 cells quantified per trial.

[2] = tested on: heteroplasmic mt:Col^T300l flies; assay: Survival and climbing of heteroplasmic mt:CoI T300I flies; type: in vivo, Drosophila
Protocol: Finally, SR3677 in an alternate, genetic model of mitochondrial dysfunction was tested. Specifically, flies with a temperature-sensitive, de-stabilizing mutation in cytochrome c oxidase subunit I (mt:Col^T300l) were used. This mutation causes depolarization of the mitochondrial membrane potential and increased mitochondrial reactive oxygen species^44, manifesting in systemic consequences such as impaired climbing and survival. Flies with this mutation in 100% of their mitochondrial genomes, or homoplasmic flies, only survive 4 days post-eclosion. In order to extend our therapeutic window, SR3677 in heteroplasmic flies which contain this temperature-sensitive mutation in approximately 90% of their mtDNA instead^47 was tested. These flies retain the same phenotypes as homoplasmic flies, including reduced survival and climbing ability although to a less severe extent (FIG. 7).
Immediately following eclosion, male heteroplasmic mt:Col^T300l flies were transferred to vials containing either water, 1 or 2 mM SR3677. Newly eclosed Canton(S) male flies were placed into fresh vials and referenced as a control for these experiments and flies were raised at non-permissive 29° C. for these experiments. […]

[3] = 0.5 μM co-treated with 10 μM CCCP

## CN(C)CCOc1cc(-c2cn[nH]c2)ccc1NC(=O)[C@@H]1COc2ccccc2O1 [SR3677]
S2R+ cells
  paraquat-mediated increase in mitochondrial superoxide levels: does prevent the paraquat-mediated increase in mitochondrial superoxide levels
Canton(S) flies; 1 mM SR3677 in food
  survival of flies, compound alone: does not affect survival of flies
Canton(S) flies; 1 mM SR3677 with 10 mM paraquat in food
  survival of flies challenged with paraquat: significantly improved viability of flies
HEK293 GFP Parkin cells; [3]
  degradation of ATP5A: increased the degradation
  degradation of COXIV: increased the degradation
  degradation of UQCRC2: enhanced
HEK293 GFP Parkin cells; 0.5 μM vs 10 μM
  fold lower concentration than Y39983 for comparable Mfn2 degradation: 20 fold
HEK293 GFP Parkin cells; 0.5 μM, 10 μM CCCP
  turnover of VDAC1: increased the turnover
HEK293 GFP Parkin cells; 10 μM CCCP
  concentration administered to enhance Mfn2 degradation: 0.5 µM
HEK293 GFP Parkin cells; 2 h pre-treatment, 10 μM CCCP, Y39983 10 μM, SR3677 0.5 μM
  Mfn2 degradation following CCCP: Increased degradation of Mfn2
SH-SY5Y cells
  crystal violet staining (OD): increased crystal violet
[1]; 0.5 μM SR3677, 24 hour DMSO treatment
  mitochondrial mass without CCCP: retained mitochondrial mass
[1]; pre-treated with 0.5 μM SR3677, 24 hour 10 μM CCCP
  % of cells that retained mito-DsRed: 28±8.21%
[2]; 1 mM and 2 mM in fly food, 29° C.
  survival: equally improved
[2]; 2 mM in fly food, 7 days
  climbing ability: improved
